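Test compounds were applied to cells in 96-well plates for 48 hours at 5 doses. The concentration for full growth arrest is given as TGI.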
What was measured:
Assay in all cases: NCI-60 cell line screen, 48 h
A498 renal = test system: A498 renal
NCI-H226 lung = test system: NCI-H226 lung
OVCAR-3 ovarian = test system: OVCAR-3 ovarian
M14 melanoma = test system: M14 melanoma
SK-MEL-5 melanoma = test system: SK-MEL-5 melanoma
SW-620 colon = test system: SW-620 colon
SK-MEL-2 melanoma = test system: SK-MEL-2 melanoma
MDA-MB-231 breast = test system: MDA-MB-231 breast
SK-MEL-28 melanoma = test system: SK-MEL-28 melanoma
OVCAR-5 ovarian = test system: OVCAR-5 ovarian
NCI/ADR-RES ovarian = test system: NCI/ADR-RES ovarian
SF-539 CNS = test system: SF-539 CNS
EKVX NSCLC = test system: EKVX NSCLC
CCRF-CEM leukemia = test system: CCRF-CEM leukemia
T-47D breast = test system: T-47D breast
RXF 393 renal = test system: RXF 393 renal
K-562 leukemia = test system: K-562 leukemia
DU-145 prostate = test system: DU-145 prostate
MOLT-4 leukemia = test system: MOLT-4 leukemia
HS 578T breast = test system: HS 578T breast
HCT-15 colon = test system: HCT-15 colon
MALME-3M melanoma = test system: MALME-3M melanoma
A549 NSCLC = test system: A549 NSCLC
HT29 colon = test system: HT29 colon
NCI-H460 lung = test system: NCI-H460 lung
KM12 colon = test system: KM12 colon
MCF7 breast = test system: MCF7 breast
LOX IMVI melanoma = test system: LOX IMVI melanoma
SF-295 CNS = test system: SF-295 CNS
COLO 205 colon = test system: COLO 205 colon
SF-268 CNS = test system: SF-268 CNS
TK-10 renal = test system: TK-10 renal
PC-3 prostate = test system: PC-3 prostate
SR leukemia = test system: SR leukemia
OVCAR-8 ovarian = test system: OVCAR-8 ovarian
RPMI-8226 leukemia = test system: RPMI-8226 leukemia
UACC-62 melanoma = test system: UACC-62 melanoma
OVCAR-4 ovarian = test system: OVCAR-4 ovarian
MDA-MB-435 = test system: MDA-MB-435
MDA-N = test system: MDA-N
SN12C renal = test system: SN12C renal
HCC-2998 colon = test system: HCC-2998 colon
UO-31 renal = test system: UO-31 renal
NCI-H23 lung = test system: NCI-H23 lung
HCT-116 colon = test system: HCT-116 colon
ACHN renal = test system: ACHN renal
CAKI-1 renal = test system: CAKI-1 renal
IGROV1 ovarian = test system: IGROV1 ovarian
SNB-75 CNS = test system: SNB-75 CNS
HL-60(TB) leukemia = test system: HL-60(TB) leukemia
SNB-19 CNS = test system: SNB-19 CNS
786-0 renal = test system: 786-0 renal
HOP-62 NSCLC = test system: HOP-62 NSCLC
SK-OV-3 ovarian = test system: SK-OV-3 ovarian
UACC-257 melanoma = test system: UACC-257 melanoma
NCI-H522 lung = test system: NCI-H522 lung
HOP-92 NSCLC = test system: HOP-92 NSCLC
U251 CNS = test system: U251 CNS

## C/C(CC1SCCCS1)=C(/C)CC1SCCCS1
A498 renal
  TGI: > 100 µM
NCI-H226 lung
  TGI: > 100 µM
OVCAR-3 ovarian
  TGI: > 100 µM
M14 melanoma
  TGI: > 100 µM
SK-MEL-5 melanoma
  TGI: > 100 µM
SW-620 colon
  TGI: > 100 µM
SK-MEL-2 melanoma
  TGI: > 100 µM
MDA-MB-231 breast
  TGI: > 100 µM
SK-MEL-28 melanoma
  TGI: > 100 µM
OVCAR-5 ovarian
  TGI: > 100 µM
NCI/ADR-RES ovarian
  TGI: > 100 µM
SF-539 CNS
  TGI: > 100 µM
EKVX NSCLC
  TGI: > 100 µM
CCRF-CEM leukemia
  TGI: > 100 µM
T-47D breast
  TGI: > 100 µM
RXF 393 renal
  TGI: > 100 µM
K-562 leukemia
  TGI: > 100 µM
DU-145 prostate
  TGI: > 100 µM
MOLT-4 leukemia
  TGI: > 100 µM
HS 578T breast
  TGI: > 100 µM
HCT-15 colon
  TGI: > 100 µM
MALME-3M melanoma
  TGI: > 100 µM
A549 NSCLC
  TGI: > 100 µM
HT29 colon
  TGI: > 100 µM
NCI-H460 lung
  TGI: > 100 µM
KM12 colon
  TGI: > 100 µM
MCF7 breast
  TGI: > 100 µM
LOX IMVI melanoma
  TGI: > 100 µM
SF-295 CNS
  TGI: > 100 µM
COLO 205 colon
  TGI: > 100 µM
SF-268 CNS
  TGI: > 100 µM
TK-10 renal
  TGI: > 100 µM
PC-3 prostate
  TGI: > 100 µM
SR leukemia
  TGI: > 100 µM
OVCAR-8 ovarian
  TGI: > 100 µM
RPMI-8226 leukemia
  TGI: > 100 µM
UACC-62 melanoma
  TGI: > 100 µM
OVCAR-4 ovarian
  TGI: > 100 µM
MDA-MB-435
  TGI: > 100 µM
MDA-N
  TGI: > 100 µM
SN12C renal
  TGI: > 100 µM
HCC-2998 colon
  TGI: > 100 µM
UO-31 renal
  TGI: > 100 µM
NCI-H23 lung
  TGI: > 100 µM
HCT-116 colon
  TGI: > 100 µM
ACHN renal
  TGI: > 100 µM
CAKI-1 renal
  TGI: > 100 µM
IGROV1 ovarian
  TGI: > 100 µM
SNB-75 CNS
  TGI: > 100 µM
HL-60(TB) leukemia
  TGI: > 100 µM
SNB-19 CNS
  TGI: > 100 µM
786-0 renal
  TGI: > 100 µM
HOP-62 NSCLC
  TGI: > 100 µM

## Cc1ccc(S(=O)(=O)n2c3c(c4ccccc42)CCN2CCC(Br)C[C@@H]32)cc1 (some centres undefined)
A498 renal
  TGI: 41 µM
NCI-H226 lung
  TGI: 27.9 µM
OVCAR-3 ovarian
  TGI: 23.6 µM
M14 melanoma
  TGI: 25.9 µM
SK-MEL-5 melanoma
  TGI: 20.2 µM
SW-620 colon
  TGI: 26.1 µM
SK-MEL-2 melanoma
  TGI: 31.7 µM
MDA-MB-231 breast
  TGI: 31.3 µM
SK-MEL-28 melanoma
  TGI: 24.5 µM
OVCAR-5 ovarian
  TGI: 31.9 µM
NCI/ADR-RES ovarian
  TGI: 32.5 µM
SF-539 CNS
  TGI: 31.5 µM
EKVX NSCLC
  TGI: 38.1 µM
CCRF-CEM leukemia
  TGI: 35.2 µM
T-47D breast
  TGI: 21.8 µM
SK-OV-3 ovarian
  TGI: 31.9 µM
RXF 393 renal
  TGI: 26.1 µM
K-562 leukemia
  TGI: 18.6 µM
DU-145 prostate
  TGI: 29.1 µM
MOLT-4 leukemia
  TGI: 25.8 µM
HS 578T breast
  TGI: 28.5 µM
HCT-15 colon
  TGI: 24.4 µM
MALME-3M melanoma
  TGI: 26.1 µM
A549 NSCLC
  TGI: 31.4 µM
HT29 colon
  TGI: 26.3 µM
UACC-257 melanoma
  TGI: 21.1 µM
NCI-H460 lung
  TGI: 30.1 µM
KM12 colon
  TGI: 21.1 µM
MCF7 breast
  TGI: 22.8 µM
NCI-H522 lung
  TGI: 18.6 µM
LOX IMVI melanoma
  TGI: 27.6 µM
HOP-92 NSCLC
  TGI: 32.4 µM
SF-295 CNS
  TGI: 23.1 µM
COLO 205 colon
  TGI: 30.2 µM
U251 CNS
  TGI: 24.9 µM
SF-268 CNS
  TGI: 30.8 µM
TK-10 renal
  TGI: 29.4 µM
PC-3 prostate
  TGI: 26.3 µM
SR leukemia
  TGI: 19.2 µM
OVCAR-8 ovarian
  TGI: 25.1 µM
RPMI-8226 leukemia
  TGI: 24.4 µM
UACC-62 melanoma
  TGI: 25.3 µM
OVCAR-4 ovarian
  TGI: 27 µM
MDA-MB-435
  TGI: 14.4 µM
MDA-N
  TGI: 15.8 µM
HCC-2998 colon
  TGI: 28.4 µM
UO-31 renal
  TGI: 24.2 µM
NCI-H23 lung
  TGI: 26.6 µM
ACHN renal
  TGI: 34.8 µM
CAKI-1 renal
  TGI: 28.6 µM
IGROV1 ovarian
  TGI: 22.3 µM
SNB-75 CNS
  TGI: 25.4 µM
HL-60(TB) leukemia
  TGI: 17.4 µM
SNB-19 CNS
  TGI: 28.7 µM
786-0 renal
  TGI: 30.2 µM
HOP-62 NSCLC
  TGI: 28.5 µM
